From EP0278940A2, “Hepatitis B virus surface antigens and hybrid antigens containing them” (SMITHKLINE BIOLOGICALS S.A., priority 1987, dated 1988)

Test system: synthetic preS2 peptide
Test: Immunogenicity in mice: anti-preS2 antibodies by solid phase RIA on synthetic preS2 peptide
Format: in vivo, mice: Balb/c (H₂-d) and NMRl (H₂-Q)
Settings: Balb/c and NMRl mice, I.P., one month, pooled sera
Protocol: The immunogenicity of particles prepared from extracts of cells containing pRIT12660 (Example 16) was studied in 2 strains of mice: Balb/c (H₂-d) and NMRl (H₂-Q). The particles were absorbed on Al(OH)₃ before injection and the mice (5 mice/group) were injected intraperitoneally (I.P.) with 0.3 µg of RIA reacting material. One month after the immunization, the mice were bled and the sera from the mice of the same group were pooled. The titer of anti-S antibodies was determined in the pools by using the AUSAB kit (Abbott Labs) and the WHO reference. The titers were converted in mIU/ml by using the Hollinger formula (Hollinger et al., in Szmuness et al., eds. Viral Hepatitis, Philadelphia : Franklin Institute Press, 451-466, 1982). The anti-preS2 antibodies were determined using a solid phase assay (RIA) in which the synthetic preS2 peptide given in Example 23, is absorbed on plastic and bound antibodies were detected with a goat anti-mouse IgG labelled with ¹²⁵I. […] PreS determinants enhance the response to the S determinants. This enhancing effect is not shown if the preS2 synthetic peptide is injected together with particles which lack the preS2.

CSCC[C@H](N)C(=O)N[C@@H](CCC(=O)O)C(=O)N[C@@H](Cc1c[nH]c2ccccc12)C(=O)N[C@@H](CC(N)=O)C(=O)N[C@@H](CO)C(=O)N[C@H](C(=O)N[C@@H](C)C(=O)N[C@@H](Cc1ccccc1)C(=O)N[C@@H](Cc1c[nH]cn1)C(=O)N[C@@H](CCC(N)=O)C(=O)N[C@@H](C)C(=O)N[C@@H](CC(C)C)C(=O)N[C@@H](CCC(N)=O)C(=O)N[C@@H](CC(=O)O)C(=O)N1CCC[C@H]1C(=O)N[C@@H](CCCNC(=N)N)C(=O)N[C@H](C(=O)N[C@@H](CCCNC(=N)N)C(=O)NCC(=O)N[C@@H](CC(C)C)C(=O)N[C@@H](Cc1ccc(O)cc1)C(=O)N[C@@H](CC(C)C)C(=O)N1CCC[C@H]1C(=O)N[C@@H](C)C(=O)NCC(=O)N[C@@H](CS)C(=O)O)C(C)C)[C@@H](C)O [preS2 synthetic peptide]
induction of anti-preS2 peptide antibodies: unable to elicit anti-preS2 antibodies
